This test deals with T1, GPCR GPR40 (Rattus norvegicus, UniProt Q8K3T4).
T1 construct: expressed in transfected cells; host or cells: HEK293
The test can be described thus: In vitro FLIPR assay with recombinant cells which express the GPCR GPR40. It counts as cell-based. The conditions noted are these: recombinant HEK293 cells expressing rat GPR40; agonist-induced change in intracellular Ca2+ (Fluo-4, FLIPR); 100% = 10 μM linoleic acid. The method, then:
In Vitro FLIPR Assay with Recombinant Cells which Express the GPCR GPR40
Function-testing assays were performed by means of the FLIPR technique (“Fluorescence Imaging Plate Reader”, Molecular Devices Corp.). To this end, agonist-induced changes in the intracellular concentration of Ca^2+ were determined in recombinant HEK293 cells which expressed the GPCR GPR40 (species: rat). For the studies, cells were sown into 96-well microtiter plates (60 000 cells/well) and left to grow overnight. The medium was removed and the cells were incubated in buffer which contained the fluorescent dye Fluo-4. After this loading with dye, the cells were washed, test substance was added and changes in the intracellular Ca^2+ concentration were measured in the FLIPR unit. Results were presented as the percentage change relative to the control (0%: no test substance added; 100%: 10 μM reference agonist linoleic acid added) and used to calculate dose/effect curves, and EC50 values were determined.

T1 sequence (Q8K3T4 whole entry): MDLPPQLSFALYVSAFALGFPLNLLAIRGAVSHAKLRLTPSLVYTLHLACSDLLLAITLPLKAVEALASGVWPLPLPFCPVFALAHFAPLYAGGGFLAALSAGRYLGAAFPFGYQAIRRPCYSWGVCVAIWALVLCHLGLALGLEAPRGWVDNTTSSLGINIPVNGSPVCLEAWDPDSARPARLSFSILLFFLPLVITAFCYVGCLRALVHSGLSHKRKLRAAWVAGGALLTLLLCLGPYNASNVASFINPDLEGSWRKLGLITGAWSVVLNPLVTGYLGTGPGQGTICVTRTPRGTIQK

As usually defined, the EC50 is the concentration that produces a half-maximal response. Turning to `CC#CC(CC(=O)O)c1ccc(OCCC(C)Oc2ccc(C(F)(F)F)cc2)cc1` (single isomer, unassigned) [Example 24, 3-{4-[(R or S)-3-(4-Trifluoromethylphenoxy)butoxy]phenyl}hex-4-ynoic acid], the EC50 came out at 980 nM.

Consider `CC#CC(CC(=O)O)c1ccc(OCC(CO)COc2ccc(C#N)c(Cl)c2)cc1` (stereo not shown) [Example 49, 3-{4-[3-(3-Chloro-4-cyanophenoxy)-2-hydroxymethylpropoxy]phenyl}hex-4-ynoic acid], for which the EC50 was 150 nM.

In the case of `CC#CC(CC(=O)O)c1ccc(OCC(CCC)COc2ccc(C(F)(F)F)cc2)cc1` (stereo not shown) [Example 44, 3-{4-[2-(4-Trifluoromethylphenoxymethyl)pentyloxy]phenyl}hex-4-ynoic acid], the EC50 is 5100 nM.

As for `CC#CC(CC(=O)O)c1ccc(OCC[C@@H](C)Oc2ccccc2C(F)(F)F)cc1` (stereo partly drawn) [Example 29, 3-{4-[(R)-3-(2-Trifluoromethylphenoxy)butoxy]phenyl}hex-4-ynoic acid], the EC50 came out at 170 nM.

`CC#CC(CC(=O)O)c1ccc(OCCOc2ccccc2C)cc1` (stereo not shown) [Example 20, 3-{4-[2-o-Tolyloxyethoxy]phenyl}hex-4-ynoic acid]: the concentration giving a half-maximal response (EC50) worked out at 80 nM.

Turning to `CC#CC(CC(=O)O)c1ccc(OCCOc2cccc(C(C)(C)C)c2)cc1` (stereo not shown) [Example 2, 3-{4-[2-(3-tert-Butylphenoxy)ethoxy]phenyl}hex-4-ynoic acid], the EC50 turned out to be 50 nM.

Take `CC#CC(CC(=O)O)c1ccc(OCCOc2ccc(C(F)(F)F)nc2)cc1` (stereo not shown) [Example 10, 3-{4-[2-(6-Trifluoromethylpyridin-3-yloxy)ethoxy]phenyl}hex-4-ynoic acid]: the EC50 was 550 nM.

On to `CC#CC(CC(=O)O)c1ccc(OCCCOc2ccccc2C(F)(F)F)cc1` (stereo not shown) [Example 6, 3-{4-[3-(2-Trifluoromethylphenoxy)propoxy]phenyl}hex-4-ynoic acid], for which the EC50 is 170 nM.

With `CC#CC(CC(=O)O)c1ccc(OCCCOc2cc(C(F)(F)F)cc(C(F)(F)F)c2)cc1` (stereo not shown) [Example 5, 3-{4-[3-(3,5-bis(Trifluoromethyl)phenoxy)propoxy]phenyl}hex-4-ynoic acid], the EC50 came out at 400 nM.

`CC#CC(CC(=O)O)c1ccc(OCCC(C)Oc2ccc(C(F)(F)F)cc2)cc1` (single isomer, unassigned) [Example 23, 3-{4-[(S or R)-3-(4-Trifluoromethylphenoxy)butoxy]phenyl}hex-4-ynoic acid]: the EC50 is 210 nM.

Turning to `CC#CC(CC(=O)O)c1ccc(OCCCOc2ccc(C(F)(F)F)cc2Cl)cc1` (stereo not shown) [Example 4, 3-{4-[3-(2-chloro-4-trifluoromethylphenoxy)propoxy]phenyl}hex-4-ynoic acid], the EC50 turned out to be 110 nM.

With `CC#CC(CC(=O)O)c1ccc(OCCCOc2cc(C(F)(F)F)ccc2Cl)cc1` (stereo not shown) [Example 9, 3-{4-[3-(2-Chloro-5-trifluoromethylphenoxy)propoxy]phenyl}hex-4-ynoic acid], the 50% effective concentration (EC50) amounted to 610 nM.

On to `CC#CC(CC(=O)O)c1ccc(OCCCOc2ccc(C(F)(F)F)cc2)cc1` (stereo not shown) [Example 11, 3-{4-[3-(4-Trifluoromethylphenoxy)propoxy]phenyl}hex-4-ynoic acid], for which the EC50 worked out at 80 nM.

With `CC#CC(CC(=O)O)c1ccc(OC(C)CCOc2cccc(C(C)(C)C)c2)cc1` (stereo not shown) [Example 33, 3-{4-[3-(3-tert-Butylphenoxy)-1-methylpropoxy]phenyl}hex-4-ynoic acid], the EC50 was determined as 1610 nM.

Regarding `CC#CC(CC(=O)O)c1ccc(OCCOc2cccc(C(F)(F)F)c2)cc1` (stereo not shown) [Example 15, 3-{4-[2-(3-Trifluoromethylphenoxy)ethoxy]phenyl}hex-4-ynoic acid], the EC50 is 60 nM.

On to `CC#CC(CC(=O)O)c1ccc(OCC[C@H](C)Oc2ccc(C(F)(F)F)cc2Cl)cc1` (stereo partly drawn) [Example 32, 3-{4-[(S)-3-(2-Chloro-4-trifluoromethylphenoxy)butoxy]phenyl}hex-4-ynoic acid], for which the EC50 is 770 nM.

Turning to `CC#CC(CC(=O)O)c1ccc(OCCCOc2cccc(C(F)(F)F)c2Cl)cc1` (stereo not shown) [Example 7, 3-{4-[3-(2-Chloro-3-trifluoromethylphenoxy)propoxy]phenyl}hex-4-ynoic acid], the EC50 was found to be 720 nM.

For the compound `CC#CC(CC(=O)O)c1ccc(OCCOc2cccc(C)c2)cc1` (stereo not shown) [Example 14, 3-{4-[2-m-Tolyloxyethoxy]phenyl}hex-4-ynoic acid], the EC50 is 50 nM.

With `CC#CC(CC(=O)O)c1ccc(OCC(COc2ccc(C(F)(F)F)cc2)c2ccccc2)cc1` (stereo not shown) [Example 46, 3-{4-[2-Phenyl-3-(4-trifluoromethylphenoxy)propoxy]phenyl}hex-4-ynoic acid], the EC50 came to 8490 nM.

For the compound `CC#CC(CC(=O)O)c1ccc(OCCCOc2cccc(C)c2)cc1` (stereo not shown) [Example 12, 3-{4-[3-m-Tolyloxypropoxy]phenyl}hex-4-ynoic acid], the EC50 was 70 nM.

Consider `CC#CC(CC(=O)O)c1ccc(OCC(COc2cccc(C(C)(C)C)c2)c2ccccc2)cc1` (stereo not shown) [Example 47, 3-{4-[3-(3-tert-Butylphenoxy)-2-phenylpropoxy]phenyl}hex-4-ynoic acid], for which the EC50 amounted to 8740 nM.

For the compound `CC#CC(CC(=O)O)c1ccc(OCC(C)COc2ccc(C(C)(C)C)cc2Cl)cc1` (stereo not shown) [Example 37, 3-{4-[3-(4-tert-Butyl-2-chlorophenoxy)-2-methylpropoxy]phenyl}hex-4-ynoic acid], the EC50 turned out to be 6010 nM.

For `CC#CC(CC(=O)O)c1ccc(OCC(C)COc2ccc(C(F)(F)F)cc2)cc1` (stereo not shown) [Example 34, 3-{4-[2-Methyl-3-(4-trifluoromethylphenoxy)propoxy]phenyl}hex-4-ynoic acid], the EC50 came to 810 nM.

As to `CC#CC(CC(=O)O)c1ccc(OC(C)CCOc2ccc(C(F)(F)F)cc2)cc1` (stereo not shown) [Example 25, 3-{4-[1-Methyl-3-(4-trifluoromethylphenoxy)propoxy]phenyl}hex-4-ynoic acid], the EC50 turned out to be 1990 nM.

On to `CC#CC(CC(=O)O)c1ccc(OCC(C)COc2ccc(Br)c(Cl)c2)cc1` (stereo not shown) [Example 40, 3-{4-[3-(4-Bromo-3-chlorophenoxy)-2-methylpropoxy]phenyl}hex-4-ynoic acid], for which the EC50 was 830 nM.

Take `CC#CC(CC(=O)O)c1ccc(OCC(CC)COc2ccc(C(F)(F)F)cc2)cc1` (stereo not shown) [Example 42, 3-{4-[2-(4-Trifluoromethylphenoxymethyl)butoxy]phenyl}hex-4-ynoic acid]: the EC50 was found to be 1780 nM.

Consider `CC#CC(CC(=O)O)c1ccc(OCC(CC)COc2cccc(C(C)(C)C)c2)cc1` (stereo not shown) [Example 43, 3-{4-[2-(3-tert-Butylphenoxymethyl)butoxy]phenyl}hex-4-ynoic acid], for which the EC50 came out at 2030 nM.

Consider `CC#CC(CC(=O)O)c1ccc(OCC(COC)COc2ccc(C#N)c(Cl)c2)cc1` (stereo not shown) [Example 50, 3-{4-[3-(3-Chloro-4-cyanophenoxy)-2-methoxymethylpropoxy]phenyl}hex-4-ynoic acid], for which the EC50 was 550 nM.

For the compound `CC#CC(CC(=O)O)c1ccc(OCCCCOc2cccc(C(C)(C)C)c2)cc1` (stereo not shown) [Example 3, 3-{4-[4-(3-tert-Butylphenoxy)butoxy]phenyl}hex-4-ynoic acid], the 50% effective concentration (EC50) amounted to 350 nM.

For the compound `CC#CC(CC(=O)O)c1ccc(OCCOc2ccccc2F)cc1` (stereo not shown) [Example 18, 3-{4-[2-(2-Fluorophenoxy)ethoxy]phenyl}hex-4-ynoic acid], the EC50 stood at 460 nM.

Regarding `CC#CC(CC(=O)O)c1ccc(OCC(C)(C)COc2ccc(C(F)(F)F)cc2)cc1` (stereo not shown) [Example 41, 3-{4-[2,2-dimethyl-3-(4-trifluoromethylphenoxy)propoxy]phenyl}hex-4-ynoic acid], the EC50 came out at 800 nM.

Values taken from patent US20120004166A1, “ARYLOXYALKYLENE-SUBSTITUTED HYDROXYPHENYLHEXYNOIC ACIDS, PROCESS FOR PREPARATION THEREOF AND USE THEREOF AS A MEDICAMENT” (SANOFI, priority 2010, published 2012).
